Experimental data: patent US20240415801A1, “Methods and Compositions for Treating Fibroids” (Lundquist Institute for Biomedical Innovation at …, priority 2023, published 2024)

Assays:
human fibroid xenograft = assay: Human fibroid xenograft mouse model, tumor weight (Example 1); assay type: in vivo, ovariectomized CB-17 SCID/Beige mice; details: 20 mg/kg daily i.p., two months (8 weeks), vs matched vehicle
Source text: Portions of intramural uterine fibroids (2-5 cm diameter) were obtained from hysterectomies performed at Harbor-UCLA Medical Center for symptomatic fibroids (n=10). Prior approval was secured from the Institutional Review Board (18CR-31752-01 R) at the Lundquist Institute. Tissues were exclusively sourced from premenopausal patients who had not been treated with hormonal medications for at least 3 months before surgery. The fibroids used in this study were sourced from African American (n=2) and Hispanic (n=8) women aged between 35-50 years (mean 43±4.8 years). The MED12 mutation status of all fibroids was determined by PCR amplification and Sanger sequencing (Laragen Inc., Culver City, CA, USA). […] Informed consent was obtained from all participants. A segment of each tumor was allocated for in vivo studies, and the remaining tissues were promptly snap-frozen and stored in liquid nitrogen for further analysis as previously described. This selection process for tumors was aimed at minimizing variance among fibroids.

[1] = Safety test, plasma chemistry panel (Example 2); assay type: in vivo, SCID/Beige mice; details: 5 mg/kg i.p.
Description: In order to determine if Bay 11-7082 administration was safe, the plasma collected from the mice was tested after 8 weeks of treatment with vehicle or Bay 11-7082. The plasma (100 μL) was pipetted into the Comprehensive Diagnostic Profile Rotor (#500-1038, Abaxis, Union City, CA, USA) and the values of glucose, creatinine, BUN, phosphorus, sodium, albumin, alkaline phosphatase, serum glutamic pyruvic transaminase (SGPT; ALT), total protein, globulin, total bilirubin and amylase were analyzed using VetScan VS2 chemistry analyzer (Abaxis, Union City, CA, USA).

fibroid xenografts = assay: RNA sequencing of fibroid xenografts (Example 1); assay type: in vivo, SCID/Beige mice; details: for number of downregulated transcripts (RNAseq) / number of upregulated transcripts (RNAseq): cutoff 1.5 fold, xenografts after two months, n=4 vs 4 vehicle
[2] = xenografts, 20 mg/kg daily, two months

Cc1ccc(S(=O)(=O)/C=C/C#N)cc1 [Bay 11-7082]
reduction of tumor weight (human fibroid xenograft): 50% | adverse effects in blood plasma chemistry panel (glucose, kidney function, electrolytes, liver function, pancreatic amylase) ([1]; 8 weeks): no adverse effects | Albumin (mean ± SEM) ([1]; plasma after 8 weeks): 3.5 ± 0.14 g/dL | Alkaline phosphatase (mean ± SEM) ([1]; plasma after 8 weeks): 91.9 ± 20.05 U/l | Amylase (mean ± SEM) ([1]; plasma after 8 weeks): 643.0 ± 36.82 U/l | BUN (mean ± SEM) ([1]; plasma after 8 weeks): 27.1 ± 5.75 mg/dL | Creatinine (mean ± SEM) ([1]; plasma after 8 weeks): 0.4 ± 0.03 mg/dL | Globulin (mean ± SEM) ([1]; plasma after 8 weeks): 1.1 ± 0.24 g/dL | Glucose (mean ± SEM) ([1]; plasma after 8 weeks): 261.0 ± 14.63 mg/dL | Phosphorus (mean ± SEM) ([1]; plasma after 8 weeks): 10.1 ± 0.53 mg/dL | SGPT (ALT) (mean ± SEM) ([1]; plasma after 8 weeks): 54.5 ± 8.71 U/l | Sodium (mean ± SEM) ([1]; plasma after 8 weeks): 155.3 ± 1.35 mEq/l | Total bilirubin (mean ± SEM) ([1]; plasma after 8 weeks): 0.3 ± 0.04 mg/dL | Total protein (mean ± SEM) ([1]; plasma after 8 weeks): 4.6 ± 0.16 g/dL | number of downregulated transcripts (RNAseq) (fibroid xenografts): 629 | number of upregulated transcripts (RNAseq) (fibroid xenografts): 374 | number of downregulated transcripts (RNAseq) (fibroid xenografts; listed as Bay): 374 | number of upregulated transcripts (RNAseq) (fibroid xenografts; listed as Bay): 629 | RNAseq: expression of TDO2 and serotonin receptor HTR1B (fibroid xenografts; [2]): significantly inhibited | RNAseq: expression of growth factors (IGF1, EGF, PDGF, FGF8, PRL, TGFB3) and ECM components (COL3A1, KRT10) (fibroid xenografts; [2]): decrease | RNAseq: genes of cell proliferation, mitosis, mitotic apparatus, cytokinesis (Ki67, E2F1, CCND1, CCNB1, CCNA2, BUB1, CKS2 and others) (fibroid xenografts; [2]): downregulated | RNAseq: pro-inflammatory cytokines (IL1a, IL1b, TNF, IL6, IL15, IL7R, TNFRSF11A), TLR3, TLR6, chemokines (CXCCR4, CCR5, CCL3, CCL5) (fibroid xenografts; [2]): downregulation | RNAseq: vWF, ICAM1, ITGAX, SOX2, CXCL8, IL10, IL13 (fibroid xenografts; xenografts, two months, significant variation among animals): up-regulated
